Assay results reported in patent US7528205B2, “Photo radical generator, photo sensitive resin composition and article” (Dai Nippon Printing Co., Ltd., priority 2003, dated 2009).

Experiments:
[1] = Evaluation of heat resistance (thermogravimetry, 5% reduction in weight temperature); format: physicochemical; conditions: for 5% heat decomposition temperature: temperature rise rate 10° C./min; for 5% heat decomposition temperature / heat resistance / 5% reduction in weight temperature, comparison in words: nitrogen atmosphere; for residue on heating: heated to 600° C. in a nitrogen atmosphere; for heat resistance / 5% reduction in weight temperature, comparison in words: 10° C./min
Method: Herein, the 5% reduction in weight temperature means a temperature at which the weight of a sample is reduced […] when a decrement of weight is measured using a thermogravimetric analyzer according to the same method as in the examples of the present invention as will be explained later. Similarly, the 10% reduction in weight temperature means a temperature at which the weight of a sample is reduced […].
Using a differential type differential thermal balance (product name: TG8120; manufactured by Rigaku Corporation), the 5% reduction in weight temperature of each of the compounds 1 to 15 was measured at a temperature rise rate of 10° C./min in a nitrogen atmosphere. As comparative examples, the comparative compounds 2 and 3 and a self-cleavage type photoradical generator Irgacure 907 (trademark; manufactured by Ciba Specialty Chemicals) were similarly measured.

[2] = Evaluation 1 of curability (coating layer with trifunctional acrylate, UV exposure, no hydrogen donor); conditions: for Reaction rate (decrement of double bond): nitrogen; for Compatibility with M305: imide part/double bond 1/50
Method: (§1) Using a trifunctional acrylate (product name; M-305, manufactured by Toagosei Co., Ltd.) as polyfunctional monomers, the compounds 1 to 14, the comparative compounds 2 and 3 and a photoradical generator Irgacure 907 (product name; manufactured by Ciba Specialty Chemicals) were mixed with each polyfunctional monomer to prepare each THF solution of each photoradical generator.
(§2) The mixing was performed so that a ratio of the photoradical generator to the polyfunctional monomer is such that number of imide part of each of the compounds 1 to 14 and the comparative compounds 2 and 3 with respect to number of double bond of the polyfunctional monomer is 1/50 (number of imide part/number of polyfunctional monomer) or, in the case of Irgacure, number of the molecule with respect to number of double bond of the polyfunctional monomer is 1/50 (number of Irgacure 907/number of polyfunctional monomer).
(§3) Each solution was applied by spin coating to a glass substrate on which chromium was sputtered to obtain coating layers. Also, a layer without initiator component or comparative compounds and only containing trifunctional acrylate was formed as a blank.
(§4) A decrement of the peak at 810 cm^−1 was recorded with time by using an infrared spectrometer (product name: FTS6000; manufactured by BIO RAD) while exposing the above coating layer to ultraviolet rays, to confirm the degree of the disappearance of a double bond. The atmosphere around the sample during measurement was replaced with nitrogen. As the UV exposure apparatus, UV Spot Cure SP-III type (standard reflecting mirror type) manufactured by Ushio Inc. was used and as the UV lamp, USH-255BY (manufactured by Ushio Inc.) was used.

[3] = Evaluation 2 of curability (triethanolamine added as hydrogen donor)
Method: as §1, §2, §3, §4
In order to confirm whether or not the seven-membered ring imide structure-containing group was a hydrogen-drawing type radical generator, triethanolamine was added to THF solutions containing each of the compositions 1 to 14 used in the aforementioned Evaluation 1 of curability and trifunctional acrylate M305, coating layers were formed in the same manner as in the aforementioned Evaluation 1 of curability, and evaluated similarly. As comparative examples, each of the comparative compounds 1 and 3 was used.

| 5% heat decomposition temperature [1] [°C] | Compatibility with M305 [2] | Compatibility with M305 [3] | Structure (SMILES) | Reaction rate (decrement of double bond) ([2]; Exposure 50 mJ) [%] | Reaction rate (decrement of double bond) ([2]; Exposure 100 mJ) [%] | Reaction rate (decrement of double bond) ([2]; Exposure 400 mJ) [%] | Reaction rate (decrement of double bond) ([3]; Exposure 50 mJ) [%] | Reaction rate (decrement of double bond) ([3]; Exposure 100 mJ) [%] | Reaction rate (decrement of double bond) ([3]; Exposure 400 mJ) [%] | residue on heating [1] | heat resistance / 5% reduction in weight temperature, comparison in words [1] |
| --- | --- | --- | --- | --- | --- | --- | --- | --- | --- | --- | --- |
| 240 | ∘ | ∘ | CC(=O)OCCn1c(=O)c2ccccc2c2ccccc2c1=O [Compound 2] | 0.1 | 0.2 | 1.2 | 23.7 | 29.4 | 41.1 | – | – |
| 260 | ∘ | ∘ | CC(=O)OCCOCCn1c(=O)c2ccccc2c2ccccc2c1=O [Compound 3] | 0.1 | 0.2 | 0.8 | 26.8 | 32.7 | 43.7 | – | – |
| 208 | ∘ | ∘ | CC(=O)OCC(C(C)C)n1c(=O)c2ccccc2c2ccccc2c1=O (stereo not drawn) [Compound 4] | 0.2 | 0.4 | 0.9 | 22.0 | 28.2 | 40.0 | – | – |
| 213 | ∘ | ∘ | C=COCCCn1c(=O)c2ccccc2c2ccccc2c1=O [Compound 5] | 0.4 | 0.7 | 2.3 | 23.8 | 29.2 | 41.0 | – | – |
| 257 | ∘ | ∘ | CC(=O)OCCOCCOCCn1c(=O)c2ccccc2c2ccccc2c1=O [Compound 6] | 3.2 | 5.4 | 14.2 | 33.1 | 37.9 | 47.9 | – | – |
| 233 | ∘ | ∘ | C=CC(=O)OCCn1c(=O)c2ccccc2c2ccccc2c1=O [Compound 7] | 1.5 | 3.4 | 7.7 | 25.3 | 30.1 | 41.3 | carbide was left not decomposed completely | – |
| 357 | ∘ | ∘ | C=CC(=O)OCCOCCn1c(=O)c2ccccc2c2ccccc2c1=O [Compound 8] | 5.0 | 7.3 | 21.4 | 36.2 | 41.4 | 51.4 | carbide was left not decomposed completely | specifically high |
| 295 | ∘ | ∘ | C=CC(=O)OCCOCCOCCn1c(=O)c2ccccc2c2ccccc2c1=O [Compound 9] | 0.5 | 0.7 | 1.2 | 13.8 | 19.9 | 34.4 | – | – |
| 204 | ∘ | ∘ | O=c1c2ccccc2c2ccccc2c(=O)n1CCOCCn1c(=O)c2ccccc2c2ccccc2c1=O [Compound 10] | 4.0 | 6.8 | 17.4 | 30.8 | 40.7 | 45.9 | – | – |
| 240 | ∘ | ∘ | O=c1c2ccccc2c2ccccc2c(=O)n1CCOCCOCCOCCn1c(=O)c2ccccc2c2ccccc2c1=O [Compound 11] | 27.9 | 37.3 | 42.3 | 18.0 | 21.3 | 29.4 | – | – |
| 276 | ∘ | ∘ | O=c1c2ccccc2c2ccccc2c(=O)n1CCOCCOCCOCCOCCOCCn1c(=O)c2ccccc2c2ccccc2c1=O [Compound 12] | 11.0 | 15.2 | 24.8 | 25.2 | 30.7 | 40.6 | – | – |
| 177 | ∘ | ∘ | CN(C)CCn1c(=O)c2ccccc2c2ccccc2c1=O [Compound 13] | 0.2 | 0.8 | 4.2 | 11.0 | 15.2 | 24.8 | – | slightly lower 5% reduction in weight temperature |
| 234 | ∘ | ∘ | CC(=O)OCCN(CCn1c(=O)c2ccccc2c2ccccc2c1=O)C(C)=O [Compound 14] | 1.0 | 2.0 | 6.4 | 16.8 | 20.9 | 30.5 | – | – |
| 184 | ∘ | ∘ | C=CC(=O)OCCN1C(=O)C2=C(CCCC2)C1=O [compound 2, reference compound] | 0.1 | 0.3 | 2.0 | 1.3 | 2.0 | 8.6 | – | – |

| Structure (SMILES) | 5% heat decomposition temperature [1] [°C] | Compatibility with M305 [2] | Compatibility with M305 [3] | Reaction rate (decrement of double bond) ([2]; Exposure 50 mJ) [%] | Reaction rate (decrement of double bond) ([2]; Exposure 100 mJ) [%] | Reaction rate (decrement of double bond) ([2]; Exposure 400 mJ) [%] | Reaction rate (decrement of double bond) ([3]; Exposure 50 mJ) [%] | Reaction rate (decrement of double bond) ([3]; Exposure 100 mJ) [%] | Reaction rate (decrement of double bond) ([3]; Exposure 400 mJ) [%] | residue on heating [1] | heat resistance / 5% reduction in weight temperature, comparison in words [1] |
| --- | --- | --- | --- | --- | --- | --- | --- | --- | --- | --- | --- |
| CSc1ccc(C(=O)C(C)(C)N2CCOCC2)cc1 [Irg907, reference compound] | 207 | ∘ | – | 34.8 | 40.8 | 50.6 | – | – | – | – | – |
